Results: paper PMC8886048, “The Non-phosphorylating Glyceraldehyde-3-Phosphate Dehydrogenase GapN Is a Potential New Drug Target in Streptococcus pyogenes” (Frontiers in Microbiology, 2022)

Experiments:
[1] = target: non-phosphorylating glyceraldehyde-3-phosphate dehydrogenase GapN of S. pyogenes M49 strain 591 (wild type) (S. pyogenes M49 strain 591); test: SEC-MALS; HiLoad 16/600 Superdex 200 pg, room temperature, 1 x PBS pH 7.4, 0.5 ml/min; oligomeric state in solution
S. pyogenes GapN [2] = conditions: ref Iddar et al., 2003; cited from earlier work
Excerpt: The non-phosphorylating glyceraldehyde-3-phosphate dehydrogenase GapN has been predicted to be an essential enzyme in S. pyogenes M49 based on gene essentiality analyses via transposon mutant libraries ([Le Breton et al., 2015]).

S. pyogenes GapN [3] = target: T1, S. pyogenes GapN (Streptococcus pyogenes, UniProt Q99Z67); test: Activity of purified GapN (NADP+ reduction, absorption at 340 nm); assay type: biochemical, S. pyogenes M49 strain 591
T1 sequence (Q99Z67 1-475): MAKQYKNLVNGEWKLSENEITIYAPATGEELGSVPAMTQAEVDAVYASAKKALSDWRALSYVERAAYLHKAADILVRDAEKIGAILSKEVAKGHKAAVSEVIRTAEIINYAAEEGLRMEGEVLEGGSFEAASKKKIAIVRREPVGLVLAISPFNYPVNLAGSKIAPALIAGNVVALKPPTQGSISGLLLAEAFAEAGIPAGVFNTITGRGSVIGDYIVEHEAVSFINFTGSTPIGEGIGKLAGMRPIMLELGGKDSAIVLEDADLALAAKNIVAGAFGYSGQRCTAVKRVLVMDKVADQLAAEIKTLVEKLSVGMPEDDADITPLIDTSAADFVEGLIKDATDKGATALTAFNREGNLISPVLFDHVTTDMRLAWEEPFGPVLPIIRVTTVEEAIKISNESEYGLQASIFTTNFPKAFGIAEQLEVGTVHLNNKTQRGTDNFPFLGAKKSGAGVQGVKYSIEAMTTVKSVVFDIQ
Procedure: (§1) Fractions containing pure protein were pooled and dialyzed overnight in PBS or 0.1 M citric acid (pH 6.0) to prepare them for enzymatic assays.
(§2) For the measurement of activity of purified GapN, the protein concentration was adjusted to 70 μg/ml. The specific GapN activity was measured as described in [Iddar et al. (2003)] with modification of the protocol. […] The reaction was started by adding DL-G3P. […] As controls, the assay was carried out without addition of protein sample and without addition of G3P, respectively. GapN activity was calculated with the Lambert-Beer equation and expressed in units per milligram of total protein (U/mg), where one unit is defined as the formation of 1 μmol NADPH per minute. […] Potential activating or inhibiting effects on GapN activity were tested by adding 25 mM NaCl, 25 mM KCl, 25 mM NH4Cl, 10 mM D-glucose, 10 mM D-fructose, 10 mM sodium pyruvate, 10 mM ATP, 2 mM erythrose 4-phosphate (E4P), 2 mM sedoheptulose 7-phosphate (S7P), 0.4 mM NADH or 0.4 mM NADPH to the assay mixture.

S. mutans GapN = conditions: ref Crow and Wittenberger, 1979; cited from earlier work
Excerpt: E4P and phosphohydroxypyruvate were also described to inhibit GapN extracted from pea shoots, maize leaf and the green algae Chlamydomonas reinhardtii ([Kelly and Gibbs, 1973]; [Iglesias et al., 1987]). E4P and S7P are produced in the non-oxidative part of the PPP ([Stincone et al., 2015]), which is present in S. pyogenes. Thus, they could play a role in the in vivo regulation of the enzyme. […] ATP is generated during glycolysis, which provides most of the energy in S. pyogenes.

[4] = substrate: O=CC(O)COP(=O)(O)O; test: purified protein, by the assay type; assay type: biochemical, S. pyogenes M49 strain 591; conditions: other: Strep-tagged GapN; ± standard error printed (0.05 NADP; 0.19 DL-G3P)
Procedure: as §1, §2

non-phosphorylating glyceraldehyde-3-phosphate dehydrogenase GapN of S. pyogenes M49 strain 591 (wild type) (enzyme)
stoichiometry N [1]: 4

O=CC(O)COP(=O)(O)O (stereo not drawn) [G3P, glyceraldehyde 3-phosphate]
Km (S. pyogenes GapN [2]): 666 µM

NADP
Km (S. pyogenes GapN [2]): 385 µM

O=C(CO)[C@@H](O)[C@H](O)[C@H](O)[C@H](O)COP(=O)(O)O [S7P, sedoheptulose 7-phosphate]
Effect on specific activity of purified GapN (S. pyogenes GapN [3]; added to standard assay: 25 mM salts, 10 mM sugars/pyruvate, 2 mM S7P, 0.4 mM NADH or NADPH, n = 4, one-way ANOVA): does not inhibit
Effect on S. mutans GapN activity (S. mutans GapN): inhibitory effects

Nc1ncnc2c1ncn2[C@@H]1O[C@H](COP(=O)(O)OP(=O)(O)OP(=O)(O)O)[C@@H](O)[C@H]1O [ATP]
Reduction of the activity of purified GapN (S. pyogenes GapN [3]; 10 mM ATP added to standard assay (10 mM NADP+, 2 mM DL-G3P, pH 8.5), n = 4): 50%
Effect on S. mutans GapN activity (S. mutans GapN): inhibited by ATP to some extent

O=C(O)C(=O)COP(=O)(O)O [phosphohydroxypyruvate]
Effect on S. mutans GapN activity (S. mutans GapN): inhibitory effects

O=C[C@H](O)[C@H](O)COP(=O)(O)O [E4P, erythrose 4-phosphate]
Reduction of the activity of purified GapN (S. pyogenes GapN [3]; 2 mM E4P added to standard assay (10 mM NADP+, 2 mM DL-G3P, pH 8.5), n = 4): 90%
Specific GapN activity relative to standard assay mix (S. pyogenes GapN [3]; in the presence of 2 mM E4P, mean ± SD, n = 4): 10.8 ± 1.9%
Effect on S. mutans GapN activity (S. mutans GapN): inhibitory effects

B1: S. pyogenes GapN (Streptococcus pyogenes serotype M1) (protein)
chain: T1 sequence (Q99Z67 1-475)
Km [4]: 580 µM
